Results taken from ChEMBL document CHEMBL5625238, “Lead generation from N-[benzyl(4-phenylbutyl)carbamoyl]amino acid as a novel LPA1 antagonist for the treatment of systemic sclerosis” (Eur J Med Chem, 2023).
Each block holds one molecule with its values, some of them ahead of it.

How the values were obtained:
[1] = molecular target: Lysophosphatidic acid receptor 1 (Homo sapiens, UniProt Q92633); assay: Antagonist activity at human LPA1 receptor stably expressed in rat RH7777 cells assessed as reduction in LPA-induced intracellular Ca2+ concentration preincubated for 30 mins followed by LPA addition measured by Fluo-4 probe based fluorescence assay
[2] = molecular target: Lysophosphatidic acid receptor 1 (Mus musculus) (UniProt P61793); assay: In vivo antagonist activity at LPA1 receptor in C57BL/6J mouse assessed as inhibition of LPA-induced histamine release from mast cells at 10 mg/kg, po administered via gavage and measured after 1 hr by enzyme immunoassay relative to control; type: functional, organism-based
[3] = system: Mus musculus; assay: Anti-fibrotic activity in po dosed C57BL/6 mouse model of bleomycin-induced skin fibrosis assessed as inhibition of collagen production by measuring reduction in hydroxyproline content administered twice daily via gavage for 28 days measured post last dose; type: functional, organism-based; conditions: dose 10-100 mg/kg, time 28.0 day
[4] = molecular target: Lysophosphatidic acid receptor 1 (Mus musculus) (UniProt P61793); assay: In vivo antagonist activity at LPA1 receptor in C57BL/6J mouse assessed as inhibition of LPA-induced histamine release from mast cells at 10 mg/kg, po administered via gavage and measured after 4 hrs by enzyme immunoassay relative to control; type: functional, organism-based
[5] = Plasma concentration in LPA-induced C57BL/6J mouse at 100 mg/kg, po administered via gavage and measured after 4 hrs by LC-MS/MS analysis; type: ADME, organism-based
[6] = molecular target: Lysophosphatidic acid receptor 1 (Mus musculus) (UniProt P61793); assay: In vivo antagonist activity at LPA1 receptor in C57BL/6J mouse assessed as inhibition of LPA-induced histamine release from mast cells at 30 mg/kg, po administered via gavage and measured after 1 hr by enzyme immunoassay relative to control; type: functional, organism-based
[7] = species: Mus musculus; assay: animal or person; conditions: C57BL/6, po, 672 h, read-out: INH
Description: Anti-fibrotic activity in C57BL/6 mouse model of bleomycin-induced skin fibrosis assessed as inhibition of collagen production by measuring reduction in hydroxyproline content at 30 mg/kg, po administered twice daily via gavage for 28 days measured post last dose relative to control

[8] = species: Mus musculus; assay: animal or person; conditions: C57BL/6, po, 672 h, read-out: INH; remark: listed apart in the source
Description: Anti-fibrotic activity in C57BL/6 mouse model of bleomycin-induced skin fibrosis assessed as inhibition of collagen production by measuring reduction in hydroxyproline content at 100 mg/kg, po administered twice daily via gavage for 28 days measured post last dose relative to control

[9] = Plasma concentration in LPA-induced C57BL/6J mouse at 10 mg/kg, po administered via gavage and measured after 1 hr by LC-MS/MS analysis; type: ADME, organism-based
[10] = species: Mus musculus; assay: animal or person; conditions: C57BL/6, po, 672 h, read-out: INH; remark: listed apart in the source
Description: Anti-fibrotic activity in C57BL/6 mouse model of bleomycin-induced skin fibrosis assessed as inhibition of collagen production by measuring reduction in hydroxyproline content at 10 mg/kg, po administered twice daily via gavage for 28 days measured post last dose relative to control

[11] = Plasma concentration in LPA-induced C57BL/6J mouse at 10 mg/kg, po administered via gavage and measured after 4 hrs by LC-MS/MS analysis; type: ADME, organism-based
[12] = molecular target: Lysophosphatidic acid receptor 1 (Mus musculus) (UniProt P61793); assay: In vivo antagonist activity at LPA1 receptor in C57BL/6J mouse assessed as inhibition of LPA-induced histamine release from mast cells at 30 mg/kg, po administered via gavage and measured after 4 hrs by enzyme immunoassay relative to control; type: functional, organism-based
[13] = Plasma concentration in LPA-induced C57BL/6J mouse at 10 mg/kg, po administered via gavage and measured after 8 hrs by LC-MS/MS analysis; type: ADME, organism-based
[14] = molecular target: Lysophosphatidic acid receptor 1 (Mus musculus) (UniProt P61793); assay: In vivo antagonist activity at LPA1 receptor in C57BL/6J mouse assessed as inhibition of LPA-induced histamine release from mast cells at 100 mg/kg, po administered via gavage and measured after 4 hrs by enzyme immunoassay relative to control; type: functional, organism-based
[15] = system: Mus musculus; assay: Anti-hypertrophic activity in po dosed C57BL/6 mouse model of bleomycin-induced skin fibrosis assessed as reduction in skin thickness administered twice daily via gavage for 28 days measured post last dose by caliper method; type: functional, organism-based; conditions: dose 10-100 mg/kg, time 28.0 day
[16] = molecular target: Lysophosphatidic acid receptor 1 (Mus musculus) (UniProt P61793); assay: In vivo antagonist activity at LPA1 receptor in C57BL/6J mouse assessed as inhibition of LPA-induced histamine release from mast cells at 30 mg/kg, po administered via gavage and measured after 8 hrs by enzyme immunoassay relative to control; type: functional, organism-based
[17] = Plasma concentration in LPA-induced C57BL/6J mouse at 30 mg/kg, po administered via gavage and measured after 1 hr by LC-MS/MS analysis; type: ADME, organism-based
[18] = Plasma concentration in LPA-induced C57BL/6J mouse at 30 mg/kg, po administered via gavage and measured after 8 hrs by LC-MS/MS analysis; type: ADME, organism-based
[19] = Plasma concentration in LPA-induced C57BL/6J mouse at 100 mg/kg, po administered via gavage and measured after 8 hrs by LC-MS/MS analysis; type: ADME, organism-based
[20] = molecular target: Lysophosphatidic acid receptor 1 (Mus musculus) (UniProt P61793); assay: In vivo antagonist activity at LPA1 receptor in C57BL/6J mouse assessed as inhibition of LPA-induced histamine release from mast cells at 100 mg/kg, po administered via gavage and measured after 8 hrs by enzyme immunoassay relative to control; type: functional, organism-based
[21] = Plasma concentration in LPA-induced C57BL/6J mouse at 100 mg/kg, po administered via gavage and measured after 1 hr by LC-MS/MS analysis; type: ADME, organism-based
[22] = molecular target: Lysophosphatidic acid receptor 1 (Mus musculus) (UniProt P61793); assay: In vivo antagonist activity at LPA1 receptor in C57BL/6J mouse assessed as inhibition of LPA-induced histamine release from mast cells at 10 mg/kg, po administered via gavage and measured after 8 hrs by enzyme immunoassay relative to control; type: functional, organism-based
[23] = Plasma concentration in LPA-induced C57BL/6J mouse at 30 mg/kg, po administered via gavage and measured after 4 hrs by LC-MS/MS analysis; type: ADME, organism-based
[24] = molecular target: Lysophosphatidic acid receptor 1 (Mus musculus) (UniProt P61793); assay: In vivo antagonist activity at LPA1 receptor in C57BL/6J mouse assessed as inhibition of LPA-induced histamine release from mast cells at 100 mg/kg, po administered via gavage and measured after 1 hr by enzyme immunoassay relative to control; type: functional, organism-based
[25] = species: Mus musculus; assay: animal or person; conditions: C57BL/6, po, 672 h, read-out: INH; remark: listed apart in the source
Description: Anti-fibrotic activity in C57BL/6 mouse model of bleomycin-induced skin fibrosis assessed as inhibition of collagen production by measuring reduction in hydroxyproline content at 2 mg/kg, po administered once daily via gavage for 28 days measured post last dose relative to control

Chain of Lysophosphatidic acid receptor 1 (Mus musculus) (P61793 whole entry): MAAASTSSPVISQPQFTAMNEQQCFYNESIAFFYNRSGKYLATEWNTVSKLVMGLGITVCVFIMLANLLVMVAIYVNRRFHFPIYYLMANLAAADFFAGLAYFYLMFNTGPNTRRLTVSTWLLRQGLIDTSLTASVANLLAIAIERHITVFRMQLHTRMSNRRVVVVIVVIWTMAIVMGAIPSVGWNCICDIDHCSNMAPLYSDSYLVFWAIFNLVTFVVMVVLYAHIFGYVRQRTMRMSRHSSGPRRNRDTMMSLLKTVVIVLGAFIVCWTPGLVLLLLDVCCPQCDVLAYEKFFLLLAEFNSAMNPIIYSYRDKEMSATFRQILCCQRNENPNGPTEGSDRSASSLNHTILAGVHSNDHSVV
Chain of Lysophosphatidic acid receptor 1 (Q92633 whole entry): as the sequence (P61793 whole entry) above, with A4I, S8I, Q22P, Y40H, V61I, D193E, H194N, V269I, N331S, N335T counted along it

inhibition [2]: 58% | inhibition [4]: 36% | concentration at 4 h [5]: 7160 ng/mL | inhibition [6]: 94% | concentration at 1 h [9]: 892 ng/mL | concentration at 4 h [11]: 252 ng/mL | inhibition [12]: 66% | concentration at 8 h [13]: 175 ng/mL | inhibition [14]: 94% | inhibition [16]: 44% | concentration at 1 h [17]: 4240 ng/mL | concentration at 8 h [18]: 596 ng/mL | concentration at 8 h [19]: 2460 ng/mL | inhibition [20]: 77% | concentration at 1 h [21]: 12100 ng/mL | inhibition [22]: 2% | concentration at 4 h [23]: 805 ng/mL | inhibition [24]: 95%
SMILES: COc1cc([C@@H](C)N(CCCCc2ccccc2)C(=O)NC2(C(=O)O)CC(F)(F)C2)cc(OC)c1C
inhibition [3]: Dose-Dependent Effect | inhibition in vivo at 30 mg/kg [7]: 49% | inhibition in vivo at 100 mg/kg [8]: 77% | inhibition in vivo at 10 mg/kg [10]: 22% | Activity [15]: Dose-Dependent Effect

IC50 [1]: 2750 nM
SMILES: COc1cc(CN(CCCCc2ccccc2)C(=O)NC2(C(=O)O)CC2)cc(OC)c1C

IC50 [1]: 51.4 nM
SMILES: COc1cc([C@@H](C)N(CCCc2ccccc2)C(=O)NC2(C(=O)O)CC(F)(F)C2)cc(OC)c1C

IC50 [1]: 470 nM
SMILES: COc1cc([C@H](C)N(CCCCc2ccccc2)C(=O)NC2(C(=O)O)CC(F)(F)C2)cc(OC)c1C

More lines, now with the values behind:

SMILES: COc1cc(CN(CCCCc2ccccc2)C(=O)NC2(C(=O)O)CCCCC2)cc(OC)c1C
IC50 [1]: 2150 nM

SMILES: COc1cc(CN(CCCCc2ccccc2)C(=O)NC(C)(C)C(=O)O)cc(OC)c1C
IC50 [1]: 2140 nM

SMILES: COc1cc(CN(CCCCc2ccccc2)C(=O)N[C@H](CC(C)C)C(=O)O)cc(OC)c1C
IC50 [1]: 3660 nM

SMILES: COc1cc([C@@H](C)N(CCCCCc2ccccc2)C(=O)NC2(C(=O)O)CC(F)(F)C2)cc(OC)c1C
IC50 [1]: 586 nM

SMILES: COc1cc(CN(CCCCc2ccccc2)C(=O)NC2(C(=O)O)CCCC2)cc(OC)c1C
IC50 [1]: 1790 nM

SMILES: C[C@]12C=CC(=O)C=C1CC[C@@H]1[C@@H]2C(=O)C[C@@]2(C)[C@H]1CC[C@]2(O)C(=O)CO [PREDNISONE]
inhibition in vivo at 2 mg/kg [25]: 63%
